This note sets out measurements from PMC11345828 (Journal of Medicinal Chemistry, 2024).

Marks after values point to notes of the source that are not given here.

One data set is described as follows: Mouse IV PK. To be noted: for AUC/Dose: dose normalized; for clearance: mouse, plasma, iv.
A further data set is described as follows: Dog IV PK. Particulars: dosed at 0.9 mg/kg.

Procedure for Dog IV PK: (§1) For PK analysis, mice and dogs were administered intravenously with compound formulated either in 10% ethanol and 10% Cremophor EL for mice or in 50% ethanol and 50% PEG500 for dogs. Plasma samples were obtained at predefined time points and compound concentrations in plasma were measured by quantitative HPLC-MS/MS using an internal standard. Calibration and quality control samples were prepared using blank plasma from untreated animals. Samples were precipitated with acetonitrile and injected into a HPLC system (Agilent 1200). […] The HPLC was interfaced by ESI operated in positive ionization mode to a triple quadrupole mass spectrometer (6500+ Triple Quad System, SCIEX) operated in multiple reaction monitoring mode. Chromatograms were analyzed with Analyst (SCIEX) and pharmacokinetic parameters were calculated by noncompartmental analysis using proprietary software.
Procedure for Mouse IV PK: as §1

On to `COc1c(OC[C@H]2CCCO2)cc(N2C[C@@H](C)n3c(c(CCCOc4cc(C)c(Cl)c(C)c4)c4ccc(Cl)c(-c5c(C)ncnc5C)c43)C2=O)c2c1cc(C(=O)O)n2C` [Compound 24, 7-((R)-7-Chloro-10-(3-(4-chloro-3,5-dimethylphenoxy)propyl)-6-(4,6-dimethylpyrimidin-5-yl)-4-methyl-1-oxo-3,4-dihydropyrazino[1,2-a]indol-2(1H)-yl)-4-methoxy-1-methyl-5-(((R)-tetrahydrofuran-2-yl)methoxy)-1H-indole-2-carboxylic Acid], for which, in the data set “Mouse IV PK” (mouse IV, dosed at 25 mg/kg), the CL is reported as 15 mL/min/kg and the AUC/Dose is recorded as 1476^c nM*h/mpk. The clearance in “Mouse IV PK” (25 mg/kg) stood at 15 mL/min/kg.

Consider `CCOc1c(OCC2CCOCC2)cc(N2C[C@@H](C)n3c(c(CCCOc4cc(C)c(Cl)c(C)c4)c4ccc(Cl)c(-c5c(C)nc(C)nc5C)c43)C2=O)c2c1cc(C(=O)O)n2C` [Compound 32, (R)-7-(7-Chloro-10-(3-(4-chloro-3,5-dimethylphenoxy)propyl)-4-methyl-1-oxo-6-(2,4,6-trimethylpyrimidin-5-yl)-3,4-dihydropyrazino[1,2-a]indol-2(1H)-yl)-4-ethoxy-1-methyl-5-((tetrahydro-2H-pyran-4-yl)methoxy)-1H-indole-2-carboxylic Acid], for which the AUC/Dose in the data set “Mouse IV PK” (mouse IV, dosed at 20 mg/kg) is listed as 4930^d nM*h/mpk. Also, the clearance in “Mouse IV PK” (20 mg/kg) and in the data set “Mouse IV PK” (25 mg/kg) was 3.7 mL/min/kg each time.

For the compound `COc1c(OC[C@H]2CCCO2)cc(N2C[C@@H](C)n3c(c(CCCOc4cc(C)c(Cl)c(C)c4)c4ccc(Cl)c(-c5c(C)nc(C)nc5C)c43)C2=O)c2c1cc(C(=O)O)n2C` [Compound 28, 7-((R)-7-Chloro-10-(3-(4-chloro-3,5-dimethylphenoxy)propyl)-6-(2,4,6-trimethylpyrimidin-5-yl)-4-methyl-1-oxo-3,4-dihydropyrazino[1,2-a]indol-2(1H)-yl)-4-methoxy-1-methyl-5-(((R)-tetrahydrofuran-2-yl)methoxy)-1H-indole-2-carboxylic Acid], in the data set “Mouse IV PK” (mouse IV, dosed at 20 mg/kg), the AUC/Dose is on record as 2510^d nM*h/mpk. The clearance in the data set “Mouse IV PK” (20 mg/kg) and in “Mouse IV PK” (25 mg/kg) was 8.4 mL/min/kg throughout.

As for `COc1c(O[C@@H]2CCOC2)cc(N2C[C@@H](C)n3c(c(CCCOc4cc(C)c(Cl)c(C)c4)c4ccc(Cl)c(-c5c(C)nc(C)nc5C)c43)C2=O)c2c1cc(C(=O)O)n2C` [Compound 30, 7-((R)-7-Chloro-10-(3-(4-chloro-3,5-dimethylphenoxy)propyl)-4-methyl-1-oxo-6-(2,4,6-trimethylpyrimidin-5-yl)-3,4-dihydropyrazino[1,2-a]indol-2(1H)-yl)-4-methoxy-1-methyl-5-(((R)-tetrahydrofuran-3-yl)oxy)-1H-indole-2-carboxylic Acid], the AUC/Dose in “Mouse IV PK” (mouse IV, dosed at 20 mg/kg) is 1425^d nM*h/mpk. The clearance in the data set “Mouse IV PK” (20 mg/kg) and in the data set “Mouse IV PK” (25 mg/kg) was 13 mL/min/kg in each case.

Consider `CCOc1c(O[C@H]2CCOC2)cc(N2C[C@@H](C)n3c(c(CCCOc4cc(C)c(Cl)c(C)c4)c4ccc(Cl)c(-c5c(C)nc(C)nc5C)c43)C2=O)c2c1cc(C(=O)O)n2C` [Compound 31, 7-((R)-7-Chloro-10-(3-(4-chloro-3,5-dimethylphenoxy)propyl)-4-methyl-1-oxo-6-(2,4,6-trimethylpyrimidin-5-yl)-3,4-dihydropyrazino[1,2-a]indol-2(1H)-yl)-4-ethoxy-1-methyl-5-(((S)-tetrahydrofuran-3-yl)oxy)-1H-indole-2-carboxylic Acid], for which, in “Mouse IV PK” (mouse IV, dosed at 20 mg/kg), the AUC/Dose is reported as 2465^d nM*h/mpk. Further, the clearance in the data set “Mouse IV PK” (20 mg/kg) and in “Mouse IV PK” (25 mg/kg) was 8.7 mL/min/kg in each case.

With `COc1c(O[C@H]2CCOC2)cc(N2C[C@@H](C)n3c(c(CCCOc4cc(C)c(Cl)c(C)c4)c4ccc(Cl)c(-c5c(C)nc(C)nc5C)c43)C2=O)c2c1cc(C(=O)O)n2C` [Compound 29, 7-((R)-7-Chloro-10-(3-(4-chloro-3,5-dimethylphenoxy)propyl)-4-methyl-1-oxo-6-(2,4,6-trimethylpyrimidin-5-yl)-3,4-dihydropyrazino[1,2-a]indol-2(1H)-yl)-4-methoxy-1-methyl-5-(((S)-tetrahydrofuran-3-yl)oxy)-1H-indole-2-carboxylic Acid], in “Dog IV PK”, the AUC/Dose is reported as 1808 nM*h/mpk, the CL is reported as 12 mL/min/kg and the “CL (% hep blood flow)” value was 38 % hep blood flow. In “Mouse IV PK” (mouse IV, dosed at 5 mg/kg), the AUC/Dose was 1858^e nM*h/mpk. Besides, in “Mouse IV PK” (5 mg/kg), the clearance worked out at 19 mL/min/kg. Further, the clearance in “Mouse IV PK” (25 mg/kg) is 19 mL/min/kg.

As for `COc1c(OCC2CCOCC2)cc(N2C[C@@H](C)n3c(c(CCCOc4cc(C)c(Cl)c(C)c4)c4ccc(Cl)c(-c5c(C)ncnc5C)c43)C2=O)c2c1cc(C(=O)O)n2C` [Compound 22, (R)-7-(7-Chloro-10-(3-(4-chloro-3,5-dimethylphenoxy)propyl)-6-(4,6-dimethylpyrimidin-5-yl)-4-methyl-1-oxo-3,4-dihydropyrazino[1,2-a]indol-2(1H)-yl)-4-methoxy-1-methyl-5-((tetrahydro-2H-pyran-4-yl)methoxy)-1H-indole-2-carboxylic Acid], the AUC/Dose in “Mouse IV PK” (mouse IV, dosed at 20 mg/kg) is recorded as 2830^d nM*h/mpk. The clearance in the data set “Mouse IV PK” (20 mg/kg) and in the data set “Mouse IV PK” (25 mg/kg) was 7 mL/min/kg each time.

Regarding `COc1c(OC[C@@H]2CCCO2)cc(N2C[C@@H](C)n3c(c(CCCOc4cc(C)c(Cl)c(C)c4)c4ccc(Cl)c(-c5c(C)nc(C)nc5C)c43)C2=O)c2c1cc(C(=O)O)n2C` [Compound 27, 7-((R)-7-Chloro-10-(3-(4-chloro-3,5-dimethylphenoxy)propyl)-6-(2,4,6-trimethylpyrimidin-5-yl)-4-methyl-1-oxo-3,4-dihydropyrazino[1,2-a]indol-2(1H)-yl)-4-methoxy-1-methyl-5-(((S)-tetrahydrofuran-2-yl)methoxy)-1H-indole-2-carboxylic Acid], in “Dog IV PK”, the AUC/Dose is listed as 2100 nM*h/mpk, the CL was determined as 8.9 mL/min/kg and the “CL (% hep blood flow)” value is reported as 29 % hep blood flow. Further, the AUC/Dose in the data set “Mouse IV PK” (mouse IV, dosed at 20 mg/kg) was 2190^d nM*h/mpk. The clearance in the data set “Mouse IV PK” (20 mg/kg) amounted to 8.9 mL/min/kg. This compound also returned a clearance in “Mouse IV PK” (25 mg/kg) of 8.9 mL/min/kg.

In “Mouse IV PK” (mouse IV, dosed at 25 mg/kg), `COc1cc(N2C[C@@H](C)n3c(c(CCCOc4cc(C)c(Cl)c(C)c4)c4ccc(Cl)c(-c5c(C)nn(C)c5C)c43)C2=O)c2c(cc(C(=O)O)n2C)c1OC` [Compound 18, (M,R)-7-(7-Chloro-10-(3-(4-chloro-3,5-dimethylphenoxy)propyl)-4-methyl-1-oxo-6-(1,3,5-trimethyl-1H-pyrazol-4-yl)-3,4-dihydropyrazino[1,2-a]indol-2(1H)-yl)-4,5-dimethoxy-1-methyl-1H-indole-2-carboxylic Acid] showed an AUC/Dose of 252 nM*h/mpk. Also, the clearance in “Mouse IV PK” (25 mg/kg) was 70 mL/min/kg.
